Measured values taken from US6900217B2, “Substituted 6,5-hetero-bicyclic derivatives” (Pfizer Inc, priority 1996, dated 2005).

## CCC(CC)Nc1c(Br)c(CBr)nc2c1nnn2-c1c(C)cc(C)cc1C [Example 6, [6-Bromo-5-bromomethyl-3-(2,4,6-trimethyl-phenyl)-3H-[1,2,3]triazolo[4,5-b]pyridin-7-yl]-(1-ethyl-propyl)-amine]
  melting point: 123 to 125 °C
